Test results as given in patent US7807691B2, “Substituted N-arylpyrrolidines as selective androgen receptor modulators” (Eli Lilly and Company, priority 2005, dated 2010).
Read-outs that look alike come from different tables or passages of the source.

What was measured:
[1] = target: T1, human androgen receptor (AR) (Homo sapiens, UniProt P10275); assay: C2C12 AR/ARE reporter assay; format: cell-based; details: for EC50: mouse myoblast C2C12 cells, luciferase reporter, 48 h; for C2C12 % Efficacy: versus maximum stimulation obtained with 10 nM methyltrienolone
T1 construct: expressed in transfected cells; host or cells: mouse myoblast C2C12 cells, transiently co-transfected with FuGENE
T1 sequence (P10275 1-920): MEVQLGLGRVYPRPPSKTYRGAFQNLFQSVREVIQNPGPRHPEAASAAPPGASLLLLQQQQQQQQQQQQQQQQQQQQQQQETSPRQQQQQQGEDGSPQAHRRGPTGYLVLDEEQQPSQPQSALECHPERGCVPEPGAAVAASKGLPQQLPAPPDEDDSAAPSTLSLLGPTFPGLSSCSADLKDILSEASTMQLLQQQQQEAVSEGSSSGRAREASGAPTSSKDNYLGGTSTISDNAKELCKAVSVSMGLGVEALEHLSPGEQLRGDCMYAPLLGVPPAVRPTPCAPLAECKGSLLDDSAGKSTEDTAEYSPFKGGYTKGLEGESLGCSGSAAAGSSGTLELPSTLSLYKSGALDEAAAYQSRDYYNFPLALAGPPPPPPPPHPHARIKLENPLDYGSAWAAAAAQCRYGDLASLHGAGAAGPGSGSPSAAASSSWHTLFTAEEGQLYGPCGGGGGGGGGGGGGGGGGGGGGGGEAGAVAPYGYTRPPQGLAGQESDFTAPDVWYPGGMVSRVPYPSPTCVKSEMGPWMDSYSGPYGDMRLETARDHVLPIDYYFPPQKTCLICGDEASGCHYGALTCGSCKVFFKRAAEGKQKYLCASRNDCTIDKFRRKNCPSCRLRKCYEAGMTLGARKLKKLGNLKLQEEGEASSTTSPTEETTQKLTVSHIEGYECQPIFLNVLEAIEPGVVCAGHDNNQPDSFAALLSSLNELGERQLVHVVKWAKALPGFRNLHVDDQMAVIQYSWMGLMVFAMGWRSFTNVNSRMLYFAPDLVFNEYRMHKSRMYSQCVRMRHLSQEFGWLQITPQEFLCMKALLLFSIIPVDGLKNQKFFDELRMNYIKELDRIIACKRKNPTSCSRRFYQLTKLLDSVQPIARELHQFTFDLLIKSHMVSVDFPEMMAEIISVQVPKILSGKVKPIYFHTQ
Description: As an indicator of agonist activity in muscle tissue, the C2C12 AR/ARE reporter assay is performed. Briefly, mouse myoblast C2C12 cells are co-transfected using FuGENE™. […] Cells are transfected in T150 cm^2 flasks in DMEM media with 4% or 10% Fetal Bovine Serum (FBS). After a 5 hour incubation, transfected cells are trypsinized, plated in 96 well dishes in DMEM media containing 10% charcoal-stripped FBS, incubated for 2 h and then exposed to various concentrations of test compounds ranging from about 0.01 nM to 10 μM. After 48 h of incubations with compounds, cells are lysed and luciferase activity is determined using standard techniques. Data is fit to a 4 parameter-fit logistics to determine EC50 values. The % efficacy is determined versus maximum stimulation obtained with 10 nM methyltrienolone. […]

[2] = target: T2, human AR (androgen receptor) (Homo sapiens, UniProt P10275); assay: Steroid hormone nuclear receptor binding assay (AR binding)
T2 construct: expressed in transfected cells; host or cells: 293 cells (293-AR lysate)
T2 sequence (P10275 1-920): T1 sequence (P10275 1-920)
Description: Cell lysates from 293 cells overexpressing human GR (glucocorticoid receptor), AR (androgen receptor), MR (mineralocorticoid receptor) or PR (progesterone receptor) are used for competition binding assays to determine Ki values for test compounds. Briefly, competition binding assays are run in a buffer containing 20 mM Hepes, pH 7.6, 0.2 mM EDTA, 75 mM NaCl, 1.5 mM MgCl2, 20% glycerol, 20 mM sodium molybdate, 0.2 mM DTT, 20 ug/ml aprotinin and 20 ug/ml leupeptin, using either 0.3 nM ^3H-dexamethasone for GR binding, 0.36 nM ^3H-methyltrienolone for AR binding, 0.25 nM ^3H-aldosterone for MR binding, or 0.29 nM ^3H-methyltrienolone for PR binding, and either 20 ug 293-GR lysate, 22 ug 293-AR lysate, 20 ug 293-MR lysate or 40 ug 293-PR lysate per well. Competing compounds are added at various concentrations ranging from about 0.01 nM to 10 μM. Non-specific binding is determined in the presence of 500 nM dexamethasone for GR binding, 500 nM aldosterone for MR binding, or 500 nM methyltrienolone for AR and PR binding. The binding reaction (140 μl) is incubated for overnight at 4° C., then 70 μl of cold charcoal-dextran buffer (containing per 50 ml of assay buffer, 0.75 g of charcoal and 0.25 g of dextran) is added to each reaction. Plates are mixed 8 minutes on an orbital shaker at 4° C. Plates are then centrifuged at 3,000 rpm at 4° C. for 10 minutes. An aliquot of 120 μl of the mix is transferred to another 96-well plate and 175 μl of Wallac Optiphase “Hisafe 3” scintillation fluid is added to each well. Plates are sealed and shaken vigorously on an orbital shaker. After an incubation of 2 hrs, plates are read in a Wallac Microbeta counter. The data is used to calculate an IC50 and % Inhibition at 10 μM. The Kd for ^3H-dexamethasone for GR binding, ^3H-methyltrienolone for AR binding, ^3H-aldosterone for MR binding, or ^3H-methyltrienolone for PR binding, is determined by saturation binding. The IC50 values for test compounds are converted to Ki using Cheng-Prusoff equation and the Kd determined by saturation binding assay.
Binding assay protocols for steroid hormone nuclear receptors similar to those described above can be readily designed by the ordinarily skilled artisan.

[3] = C2C12, read-out: C2C12 % Efficacy, versus maximum stimulation obtained with 10 nM methyltrienolone, average
[4] = AR binding Ki (nM), 293-AR cell lysate, 3H-methyltrienolone competition

SMILES	Emax [1, 3] [%]	EC50 ([1]; C2C12 EC50(nM), average) [nM]	Ki [2, 4] [nM]	C2C12 % Efficacy ([1]; average) [%]	Emax ([1]; C2C12, read-out: C2C12 % Efficacy) [%]	EC50 ([1]; average, read-out: C2C12 EC50) [nM]	Ki [2] [nM]
CCC1CCC(c2ccccc2)N1c1ccc(C#N)c(Cl)c1 (mixture of isomers) [Example 22, 2-Chloro-4-(2-ethyl-5-phenyl-pyrrolidin-1-yl)-benzonitrile]	85.5	17.7	4.9				
CCC1CCC(c2ccccc2)N1c1ccc(C#N)c(Cl)c1C (mixture of isomers) [Example 23, 2-Chloro-4-(2-ethyl-5-phenyl-pyrrolidin-1-yl)-3-methyl-benzonitrile]	70.1	131	27.1				
CCC1CCC(c2ccccc2)N1c1ccc(C#N)c(Cl)c1 (single isomer, unassigned) [Example 22a, 2-Chloro-4-(2-ethyl-5-phenyl-pyrrolidin-1-yl)-benzonitrile]		32.4	122	92.4			
CCC1CCC(c2ccccc2)N1c1ccc(C#N)c(Cl)c1 (single isomer, unassigned) [Example 22b, 2-Chloro-4-(2-ethyl-5-phenyl-pyrrolidin-1-yl)-benzonitrile]		25	39.9	80.6			
CCC1CCC(c2ccccc2)N1c1ccc(C#N)c(Cl)c1 (single isomer, unassigned) [Example 22c, 2-Chloro-4-(2-ethyl-5-phenyl-pyrrolidin-1-yl)-benzonitrile]		135	39.8	61.3			
CCC1CCC(c2ccccc2)N1c1ccc(C#N)c(Cl)c1 (single isomer, unassigned) [Example 22d, 2-Chloro-4-(2-ethyl-5-phenyl-pyrrolidin-1-yl)-benzonitrile]		6.1	2.2	66.5			
Cc1c(N2CCCC2c2ccccc2)ccc(C#N)c1Cl (stereo not drawn) [Example 1, 2-Chloro-3-methyl-4-(2-phenyl-pyrrolidin-1-yl)-benzonitrile]	67.6	1.2	1.4				
Cc1c(N2CCCC2c2ccc(Cl)cc2)ccc(C#N)c1Cl (stereo not drawn) [Example 2]	61	36.7	4.3				
Cc1c(N2CCCC2c2ccc(F)cc2)ccc(C#N)c1Cl (stereo not drawn) [Example 3]	51.1	5.1	2.7				
Cc1c(N2CC(C)(C)CC2c2ccccc2)ccc(C#N)c1Cl (stereo not drawn) [Example 4]	84.9	11.2	6.6				
COc1cccc(C2CCCN2c2ccc(C#N)c(Cl)c2C)c1 (stereo not drawn) [Example 5]	102	0.9	1.1				
COc1ccccc1C1CCCN1c1ccc(C#N)c(Cl)c1C (stereo not drawn) [Example 6]	81.7	177	7				
COc1ccc(C2CCCN2c2ccc(C#N)c(Cl)c2C)cc1 (stereo not drawn) [Example 7]	68.9	28.3	3.4				
Cc1c(N2CCCC2c2ccccc2C(F)(F)F)ccc(C#N)c1Cl (stereo not drawn) [Example 8]	-38.5		72.9				
Cc1c(N2CCCC2c2ccccn2)ccc(C#N)c1Cl (stereo not drawn) [Example 10]	79.8	40.8	4.7				
Cc1c(N2CCCC2c2ccncc2)ccc(C#N)c1Cl (stereo not drawn) [Example 11]	76.8	6.8	6				
CSc1cccc(C2CCCN2c2ccc(C#N)c(Cl)c2C)c1 (stereo not drawn) [Example 13]	84.7	9.7	5.8				
CSc1ccc(C2CCCN2c2ccc(C#N)c(Cl)c2C)cc1 (stereo not drawn) [Example 14]	73.1	21.2	13.4				
Cc1c(N2CCCC2c2cncnc2)ccc(C#N)c1Cl (stereo not drawn) [Example 15]	85.1	0.4	2.8				
N#Cc1ccc(N2CCCC2c2cccnc2)cc1Cl (stereo not drawn) [Example 16]	42.6	109	17.4				
CC1(c2ccc3c(c2)OCO3)CCCN1c1ccc(C#N)c(Cl)c1 (stereo not drawn) [Example 17]	13.2		27.3				
COc1cccc(C2(C)CCCN2c2ccc(C#N)c(Cl)c2)c1 (stereo not drawn) [Example 18]	77.9	9.8	24.4				
N#Cc1ccc(N2CCCC2c2ccc3c(c2)OCO3)cc1C(F)(F)F (stereo not drawn) [Example 19]	-12.4		17.6				
CC1(c2ccc3c(c2)OCO3)CCCN1c1ccc(C#N)c(C(F)(F)F)c1 (stereo not drawn) [Example 20]					4.8	516	21.1
Cc1c(N2CCCC2c2cccc(S(C)(=O)=O)c2)ccc(C#N)c1Cl (stereo not drawn) [Example 21, 2-Chloro-4-[2-(3-methanesulfonyl-phenyl)-pyrrolidin-1-yl]-3-methyl-benzonitrile]	58.1	103	3				
CC1(C)CC(c2ccc3c(c2)OCO3)N(c2ccc(C#N)c(Cl)c2)C1 (stereo not drawn) [Example 24, 4-[2-(1,3-benzodioxol-5-yl)-4,4-dimethylpyrrolidin-1-yl]-2-chlorobenzonitrile]	23.4	397	12.7				
Cc1nnc(C2CCCN2c2ccc(C#N)c(Cl)c2C)o1 (stereo not drawn) [Example 25, 2-chloro-3-methyl-4-[2-(5-methyl-1,3,4-oxadiazol-2-yl)pyrrolidin-1-yl]benzonitrile]	80.5	0.9	3.7				
